Measurements as given in patent publication US6835745B2, “Phenyl substituted thiophenes as estrogenic agents” (Wyeth, priority 2002, dated 2004).

Legend:
human ERβ = molecular target: T1, human ERβ (Homo sapiens, UniProt Q92731); assay: Radioligand binding competition with [3H]-17β-estradiol, ERβ; conditions: human ERβ ligand binding domain extract, read-out: ER-β IC50
T1 construct: M214-Q530 of human ERβ; Flag (C); made in house; host or cells: E. coli BL21(DE3), clarified lysate

human ERα = molecular target: T2, human ERα (Homo sapiens, UniProt P03372); assay: Radioligand binding competition with [3H]-17β-estradiol, ERα; conditions: human ERα ligand binding domain extract, read-out: ER-α IC50
T2 construct: amino acids M250-V595 of human ERα; His (N); Flag (C); made in house; host or cells: E. coli BL21(DE3), clarified lysate
T2 sequence (P03372 250-595): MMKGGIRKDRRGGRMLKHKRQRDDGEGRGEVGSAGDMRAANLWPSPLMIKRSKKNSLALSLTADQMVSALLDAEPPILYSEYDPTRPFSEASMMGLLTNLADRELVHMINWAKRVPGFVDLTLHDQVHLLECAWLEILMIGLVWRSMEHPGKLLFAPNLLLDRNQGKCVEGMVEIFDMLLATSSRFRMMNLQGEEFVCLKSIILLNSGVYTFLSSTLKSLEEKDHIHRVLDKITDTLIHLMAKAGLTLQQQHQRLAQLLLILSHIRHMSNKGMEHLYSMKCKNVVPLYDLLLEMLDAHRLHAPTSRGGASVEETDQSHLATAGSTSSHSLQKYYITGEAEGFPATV

[1] = tested on: metallothionein-II mRNA in Saos-2 cells; assay: Regulation of metallothionein II mRNA in Saos-2 cells; type: cell-based
Source text: Estrogens acting through ERβ, but not ERα can upregulate metallothionein II mRNA levels in Saos-2 cells as described by Harris [Endocrinology 142: 645-652 (2001)]. Results from this test procedure can be combined with results from the test procedure described below (ERE reporter test procedure) to generate a selectivity profile for compounds of this invention (see also WO 00/37681).

T1 sequence (Q92731 214-530): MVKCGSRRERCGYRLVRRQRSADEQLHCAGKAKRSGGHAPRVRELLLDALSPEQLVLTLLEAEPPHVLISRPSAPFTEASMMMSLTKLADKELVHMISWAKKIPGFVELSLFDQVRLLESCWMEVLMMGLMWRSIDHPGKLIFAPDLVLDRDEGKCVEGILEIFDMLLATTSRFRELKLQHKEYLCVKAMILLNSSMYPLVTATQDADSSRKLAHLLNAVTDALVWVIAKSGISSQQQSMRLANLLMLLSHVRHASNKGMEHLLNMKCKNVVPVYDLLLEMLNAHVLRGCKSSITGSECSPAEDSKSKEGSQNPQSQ

| SMILES | IC50 (human ERβ) | IC50 (human ERα) | melting point | Fold upregulation of metallothionein-II mRNA [1] |
| --- | --- | --- | --- | --- |
| Cc1c(-c2ccc(O)cc2)sc(C=O)c1-c1cccc(O)c1 [Example 1, 3-(3-Hydroxyphenyl)-5-(4-hydroxyphenyl)-4-methylthiophene-2-carbaldehyde] | 0.054 µM | 0.212 µM | 103 to 104 °C | – |
| Cc1cc(O)ccc1-c1c(C=O)sc(-c2ccc(O)cc2)c1C [Example 3, 3-(4-Hydroxy-2-methylphenyl)-5-(4-hydroxyphenyl)-4-methyl-2-thiophenecarbaldehyde] | 0.0055 µM | 0.029 µM | 244 to 247 °C | – |
| Cc1ccc(O)cc1-c1c(C=O)sc(-c2ccc(O)cc2)c1C [Example 4, 3-(5-Hydroxy-2-methylphenyl)-5-(4-hydroxyphenyl)-4-methyl-2-thiophenecarbaldehyde] | 0.174 µM | 0.464 µM | – | – |
| Cc1c(-c2ccc(O)cc2)sc(C=O)c1-c1ccc(O)c(F)c1 [Example 5, 3-(3-Fluoro-4-hydroxyphenyl)-5-(4-hydroxyphenyl)-4-methyl-2-thiophenecarbaldehyde] | 0.0018 µM | 0.0355 µM | – | – |
| Cc1c(-c2ccc(O)cc2)sc(C=O)c1-c1ccc(O)c(C=O)c1 [Example 6, 3-(3-Formyl-4-hydroxyphenyl)-5-(4-hydroxyphenyl)-4-methyl-2-thiophenecarbaldehyde] | 0.071 µM | 0.515 µM | 228 to 230 °C | – |
| Cc1c(-c2ccc(O)cc2)sc(C=O)c1-c1ccc(O)c(Cl)c1 [Example 7, 3-(3-Chloro-4-hydroxyphenyl)-5-(4-hydroxyphenyl)-4-methylthiophene-2-carbaldehyde] | 0.0017 µM | 0.031 µM | – | – |
| Cc1c(-c2ccc(O)c(F)c2)sc(C=O)c1-c1ccc(O)cc1 [Example 8, 5-(3-Fluoro-4-hydroxyphenyl)-3-(4-hydroxyphenyl)-4-methyl-2-thiophenecarbaldehyde] | 0.0053 µM | 0.093 µM | 227 to 229 °C | – |
| Cc1cc(O)ccc1-c1c(C=O)sc(-c2ccc(O)c(F)c2)c1C [Example 9, 5-(3-Fluoro-4-hydroxyphenyl)-3-(4-hydroxy-2-methylphenyl)-4-methylthiophene-2-carbaldehyde] | 0.012 µM | 0.085 µM | – | – |
| Cc1c(-c2ccc(O)c(F)c2)sc(C=O)c1-c1ccc(O)c(Cl)c1 [Example 10, 3-(3-Chloro-4-hydroxyphenyl)-5-(3-fluoro-4-hydroxyphenyl)-4-methylthiophene-2-carbaldehyde] | 0.004 µM | 0.088 µM | 252 to 254 °C | – |
| Cc1cc(O)ccc1-c1sc(C=O)c(-c2ccc(O)cc2)c1C [Example 11, 5-(4-Hydroxy-2-methylphenyl)-3-(4-hydroxyphenyl)-4-methyl-2-thiophenecarbaldehyde] | 0.0078 µM | 0.068 µM | – | – |
| Cc1cc(O)ccc1-c1sc(C=O)c(-c2ccc(O)c(F)c2)c1C [Example 12, 3-(3-Fluoro-4-hydroxyphenyl)-5-(4-hydroxy-2-methylphenyl)-4-methylthiophene-2-carbaldehyde] | 0.013 µM | 0.089 µM | – | – |
| Cc1c(-c2ccc(O)c(Cl)c2)sc(C=O)c1-c1ccc(O)cc1 [Example 13, 5-(3-Chloro-4-hydroxyphenyl)-3-(4-hydroxyphenyl)-4-methylthiophene-2-carbaldehyde] | 0.027 µM | 0.293 µM | – | – |

The next lines start with results.

| IC50 (human ERβ) | IC50 (human ERα) | melting point | SMILES | Fold upregulation of metallothionein-II mRNA [1] |
| --- | --- | --- | --- | --- |
| 0.091 µM | 0.275 µM | – | Cc1c(-c2ccc(O)cc2)sc(C=NO)c1-c1cccc(O)c1 (mixture of isomers) [Example 16, 3-(3-Hydroxyphenyl)-5-(4-hydroxyphenyl)-4-methylthiophene-2-carbaldehyde oxime] | – |
| 0.042 µM | 0.086 µM | – | Cc1c(-c2ccc(O)cc2)sc(C=NO)c1-c1ccc(O)cc1 (mixture of isomers) [Example 18, 3,5-Bis(4-hydroxyphenyl)-4-methylthiophene-2-carbaldehyde oxime] | – |
| 0.123 µM | 0.196 µM | 240 to 241 °C | Cc1c(-c2cccc(O)c2)sc(C=NO)c1-c1ccc(O)cc1 (mixture of isomers) [Example 21, 3-(4-Hydroxyphenyl)-5-(3-hydroxyphenyl)-4-methylthiophene-2-carbaldehyde oxime] | – |
| 0.016 µM | 0.157 µM | 227 to 229 °C | Cc1c(-c2ccc(O)c(Cl)c2)sc(C=O)c1-c1ccc(O)c(F)c1 [Example 14, 5-(3-Chloro-4-hydroxyphenyl)-3-(3-fluoro-4-hydroxyphenyl)-4-methylthiophene-2-carbaldehyde] | – |
| 0.0021 µM | 0.031 µM | 223 to 225 °C | Cc1c(-c2ccc(O)cc2)sc(C=O)c1-c1ccc(O)cc1 [Example 15, 3,5-Bis(4-hydroxyphenyl)-4-methylthiophene-2-carbaldehyde] | 6.0 |
| 0.083 µM | 0.305 µM | 220 to 222 °C | Cc1c(-c2ccc(O)cc2)sc(C#N)c1-c1cccc(O)c1 [Example 17, 3-(3-Hydroxyphenyl)-5-(4-hydroxyphenyl)-4-methylthiophene-2-carbonitrile] | – |
| 0.0036 µM | 0.04 µM | – | Cc1c(-c2ccc(O)cc2)sc(C#N)c1-c1ccc(O)cc1 [Example 19, 3,5-Bis(4-hydroxyphenyl)-4-methylthiophene-2-carbonitrile] | – |
| 0.028 µM | 0.152 µM | – | CON=Cc1sc(-c2ccc(O)cc2)c(C)c1-c1ccc(O)cc1 [Example 20, 3,5-Bis(4-hydroxyphenyl)-4-methylthiophene-2-carbaldehyde O-methyloxime] | – |
| 0.073 µM | 0.299 µM | – | Cc1c(-c2cccc(O)c2)sc(C#N)c1-c1ccc(O)cc1 [Example 22, 3-(4-Hydroxyphenyl)-5-(3-hydroxyphenyl)-4-methylthiophene-2-carbonitrile] | – |
| 0.057 µM | 0.073 µM | 172 to 177 °C | CON=Cc1sc(-c2ccc(O)cc2C)c(C)c1-c1ccc(O)c(F)c1 [Example 23, 3-(3-Fluoro-4-hydroxyphenyl)-5-(4-hydroxy-2-methylphenyl)-4-methylthiophene-2-carbaldehyde O-methyloxime] | – |
